Bounds are passed on as bounds.

For orientation: IC50 means the point on the concentration scale where inhibition reaches its midpoint.

For experiment [1], the target named is T1, FAK (Homo sapiens, UniProt Q05397). Description: ADP-Glo Kinase Assay, FAK. Type of experiment: biochemical. Also noted: purchased Promega V1971. As to conditions: ADP-Glo Kinase Assay Kit. As to the method: (§1) Briefly, a kinase test was performed and quantified according to the manufacturer's instructions after treating the adamantane derivative compound of the present invention by using the ADP-Glo™ Kinase Assay Kit (FAK, Promega, V1971; Pyk2, Promega, V4083; InsR, Promega, V9401) containing each kinase of Promega.

Experiment [2] addresses T1, FAK. The experiment can be described thus: FAK [pY397] ELISA in MDA-MB-231 cells. Format: cell-based. Set-up: endogenous in cells; host or cells: MDA-MB-231. As to conditions: MDA-MB-231, treated for one hour, Table 2; read-out: FAK inhibitory activity (IC50). On the procedure:
Briefly, an enzyme-linked immunosorbent assay test was performed according to the manufacturer's instructions by using the FAK (Phospho) [pY397] Human ELISA Kit (Thermo Fisher Scientific, KH00441) after dispensing 1×10^6 MDA-MB-231 cells into each well of a 6-well plate, inducing cell stabilization for 24 hours, and treating each compound at different concentrations (o, 1, 5, 10, 50, 100, 500, 1000 nM) for one hour.

Another experiment has as its target T2, InsR (Homo sapiens, UniProt P06213).
T2 construct: purchased Promega V9401
The experiment can be described thus: ADP-Glo Kinase Assay, InsR. Type of experiment: biochemical. As to conditions: ADP-Glo Kinase Assay Kit. On the procedure:
as §1
A general note: ADP-Glo first removes unused ATP, then detects ADP through luciferase.

The target of another experiment is T3, Pyk2 (Homo sapiens, UniProt Q14289).
T3 construct: purchased Promega V4083
Description: ADP-Glo Kinase Assay, Pyk2. Format: biochemical. As to conditions: ADP-Glo Kinase Assay Kit. On the procedure:
as §1

T2 sequence (P06213 28-1382): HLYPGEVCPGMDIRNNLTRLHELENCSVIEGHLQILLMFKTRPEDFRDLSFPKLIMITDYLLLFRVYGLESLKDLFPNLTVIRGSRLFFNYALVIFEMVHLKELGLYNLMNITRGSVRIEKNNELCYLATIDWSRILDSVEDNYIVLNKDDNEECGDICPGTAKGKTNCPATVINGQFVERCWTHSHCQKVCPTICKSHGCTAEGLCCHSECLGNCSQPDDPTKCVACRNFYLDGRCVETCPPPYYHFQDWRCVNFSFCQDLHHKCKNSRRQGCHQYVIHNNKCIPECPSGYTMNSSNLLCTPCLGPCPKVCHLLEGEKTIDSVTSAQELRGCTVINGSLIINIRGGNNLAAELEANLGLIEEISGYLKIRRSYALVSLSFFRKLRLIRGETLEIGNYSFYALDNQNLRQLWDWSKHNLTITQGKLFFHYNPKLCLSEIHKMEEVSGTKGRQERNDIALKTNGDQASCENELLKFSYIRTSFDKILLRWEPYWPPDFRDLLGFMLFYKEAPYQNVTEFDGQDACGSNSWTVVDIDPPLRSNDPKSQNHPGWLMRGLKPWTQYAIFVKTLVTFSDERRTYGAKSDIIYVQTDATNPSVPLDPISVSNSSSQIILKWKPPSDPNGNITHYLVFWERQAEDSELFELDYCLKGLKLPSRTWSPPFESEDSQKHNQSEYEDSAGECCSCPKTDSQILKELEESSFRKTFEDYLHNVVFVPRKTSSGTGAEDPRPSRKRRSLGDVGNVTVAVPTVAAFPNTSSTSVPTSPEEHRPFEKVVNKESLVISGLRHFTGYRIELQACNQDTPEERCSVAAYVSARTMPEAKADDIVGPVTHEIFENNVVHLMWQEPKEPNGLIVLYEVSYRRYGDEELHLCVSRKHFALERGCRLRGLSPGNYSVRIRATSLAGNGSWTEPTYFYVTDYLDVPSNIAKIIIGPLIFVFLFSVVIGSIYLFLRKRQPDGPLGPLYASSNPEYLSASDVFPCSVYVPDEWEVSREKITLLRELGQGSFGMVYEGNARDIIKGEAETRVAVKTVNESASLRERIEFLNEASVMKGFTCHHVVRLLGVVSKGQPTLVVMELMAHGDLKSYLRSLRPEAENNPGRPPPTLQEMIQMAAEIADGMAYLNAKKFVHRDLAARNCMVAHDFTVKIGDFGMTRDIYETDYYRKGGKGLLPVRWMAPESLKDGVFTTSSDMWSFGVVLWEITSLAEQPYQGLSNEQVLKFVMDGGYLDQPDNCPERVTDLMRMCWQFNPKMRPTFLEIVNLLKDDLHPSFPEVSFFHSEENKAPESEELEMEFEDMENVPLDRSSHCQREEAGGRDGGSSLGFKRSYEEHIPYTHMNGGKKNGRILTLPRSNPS
T1 sequence (Q05397 whole entry): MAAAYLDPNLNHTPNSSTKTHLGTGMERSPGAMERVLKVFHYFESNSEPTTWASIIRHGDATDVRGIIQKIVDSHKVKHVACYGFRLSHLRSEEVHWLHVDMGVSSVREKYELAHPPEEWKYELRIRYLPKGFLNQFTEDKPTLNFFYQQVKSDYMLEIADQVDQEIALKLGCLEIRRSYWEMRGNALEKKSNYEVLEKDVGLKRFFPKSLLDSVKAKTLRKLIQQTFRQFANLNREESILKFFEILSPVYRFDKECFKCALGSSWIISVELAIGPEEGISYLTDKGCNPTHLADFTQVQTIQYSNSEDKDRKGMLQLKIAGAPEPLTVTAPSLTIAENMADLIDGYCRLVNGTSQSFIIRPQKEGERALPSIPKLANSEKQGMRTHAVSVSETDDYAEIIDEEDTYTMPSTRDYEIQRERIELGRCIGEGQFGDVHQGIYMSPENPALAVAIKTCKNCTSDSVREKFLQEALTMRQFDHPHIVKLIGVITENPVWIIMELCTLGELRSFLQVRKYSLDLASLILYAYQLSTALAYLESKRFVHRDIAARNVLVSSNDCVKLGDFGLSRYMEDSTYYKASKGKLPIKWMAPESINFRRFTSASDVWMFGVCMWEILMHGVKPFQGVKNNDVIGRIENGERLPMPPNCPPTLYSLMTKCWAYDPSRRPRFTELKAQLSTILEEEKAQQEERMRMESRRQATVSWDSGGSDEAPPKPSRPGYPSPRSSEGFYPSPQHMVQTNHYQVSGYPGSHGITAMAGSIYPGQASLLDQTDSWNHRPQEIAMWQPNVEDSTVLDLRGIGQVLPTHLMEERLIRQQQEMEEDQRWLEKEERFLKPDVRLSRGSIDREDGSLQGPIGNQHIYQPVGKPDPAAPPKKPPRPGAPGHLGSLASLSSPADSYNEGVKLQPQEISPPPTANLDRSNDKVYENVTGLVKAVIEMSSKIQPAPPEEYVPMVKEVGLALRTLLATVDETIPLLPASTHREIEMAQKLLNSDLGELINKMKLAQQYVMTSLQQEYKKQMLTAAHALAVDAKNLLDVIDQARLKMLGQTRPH
T3 sequence (Q14289 whole entry): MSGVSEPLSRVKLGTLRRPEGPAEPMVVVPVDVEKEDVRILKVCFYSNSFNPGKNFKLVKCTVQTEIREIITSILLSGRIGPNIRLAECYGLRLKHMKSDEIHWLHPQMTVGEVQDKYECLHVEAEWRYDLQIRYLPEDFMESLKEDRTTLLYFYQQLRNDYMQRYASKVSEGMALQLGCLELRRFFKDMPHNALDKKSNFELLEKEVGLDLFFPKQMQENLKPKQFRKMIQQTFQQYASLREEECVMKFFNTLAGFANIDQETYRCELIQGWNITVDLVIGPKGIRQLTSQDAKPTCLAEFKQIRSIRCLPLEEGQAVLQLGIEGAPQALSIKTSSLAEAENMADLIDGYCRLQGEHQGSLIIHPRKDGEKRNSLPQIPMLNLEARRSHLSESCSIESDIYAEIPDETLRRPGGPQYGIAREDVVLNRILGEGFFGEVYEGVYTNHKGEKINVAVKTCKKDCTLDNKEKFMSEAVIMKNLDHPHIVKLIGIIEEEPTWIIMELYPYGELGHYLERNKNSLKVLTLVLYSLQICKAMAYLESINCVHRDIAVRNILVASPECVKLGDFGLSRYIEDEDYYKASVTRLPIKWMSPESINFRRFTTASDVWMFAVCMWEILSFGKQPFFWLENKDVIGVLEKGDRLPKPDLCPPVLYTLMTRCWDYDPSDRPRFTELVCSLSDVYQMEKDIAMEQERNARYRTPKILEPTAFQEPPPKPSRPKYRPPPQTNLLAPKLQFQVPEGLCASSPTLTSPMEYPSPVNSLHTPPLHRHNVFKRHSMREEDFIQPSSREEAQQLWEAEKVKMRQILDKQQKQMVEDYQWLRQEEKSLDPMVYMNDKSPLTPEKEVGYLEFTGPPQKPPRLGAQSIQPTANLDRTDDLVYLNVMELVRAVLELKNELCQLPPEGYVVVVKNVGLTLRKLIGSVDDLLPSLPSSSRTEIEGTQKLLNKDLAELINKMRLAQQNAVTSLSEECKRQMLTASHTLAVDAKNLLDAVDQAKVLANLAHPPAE

As to `CNC(=O)c1cccc(C)c1Nc1nc(Nc2ccc(OC3C4CC5CC3CC(C(=O)N3CCN(C)CC3)(C5)C4)cc2OC)ncc1C(F)(F)F` (stereo not shown) [Compound 20, 2-((2-((2-methoxy-4-((5-(4-methylpiperazin-1-carbonyl)adamantan-2-yl)oxy)phenyl)amino)-5-(trifluoromethyl)pyrimidin-4-yl)amino)-N,3-dimethylbenzamide], the IC50 turned out to be 98.9 nM against FAK [1] and 153 nM at FAK [2].
Regarding `CNC(=O)c1cccc(C)c1Nc1nc(Nc2ccc(N3CCN([C@H]4C5CC6CC4C[C@](C(=O)O)(C6)C5)CC3)cc2OC)ncc1C(F)(F)F` [Compound 39, (trans)-4-(4-(3-methoxy-4-((4-((2-methyl-6-(methylcarbamoyl)phenyl)amino)-5-(trifluoromethyl)pyrimidin-2-yl)amino)phenyl)piperazin-1-yl) adamantan-1-carboxylic acid], the midpoint of inhibition on FAK [1], the IC50, lay at 58 nM.
As to `CNC(=O)c1cccc(C)c1Nc1nc(Nc2ccc(C3CCN([C@H]4C5CC6CC4C[C@](O)(C6)C5)CC3)cc2OC)ncc1C(F)(F)F` [Compound 32, 2-((2-((4-(1-((trans)-5-hydroxyadamantan-2-yl)piperidin-4-yl)-2-methoxyphenyl)amino)-5-(trifluoromethyl)pyrimidin-4-yl)amino)-N,3-dimethylbenzamide], the values for the IC50 on InsR and at Pyk2 were 2150 nM and 154 nM, respectively.
As for `CNC(=O)c1cccc(C)c1Nc1nc(Nc2ccc(NC3C4CC5CC(C4)CC3C5)cc2OC)ncc1C(F)(F)F` (stereo not shown) [Compound 2, 2-((2-((4-(adamantan-2-ylamino)-2-methoxyphenyl)amino)-5-(trifluoromethyl)pyrimidin-4-yl)amino)-N,3-dimethylbenzamide], the IC50 is more than 10000 nM at InsR, 206 nM against FAK [1] and 111 nM on FAK [2].
For `CNC(=O)c1cccc(C)c1Nc1nc(Nc2ccc(OC34CC5CC(C3)C(=O)C(C5)C4)cc2OC)ncc1C(F)(F)F` [Compound 10, 2-((2-((2-methoxy-4-((4-oxoadamantan-1-yl)oxy)phenyl)amino)-5-(trifluoromethyl)pyrimidin-4-yl)amino)-N,3-dimethylbenzamide] the same measures were more than 10000 nM, 96.7 nM and 382 nM.
On FAK [1], `CNC(=O)c1cccc(C)c1Nc1nc(Nc2ccc(NC3C4CC5CC3CC(C(=O)N3CCOCC3)(C5)C4)cc2OC)ncc1C(F)(F)F` (stereo not shown) [Compound 22, 2-((2-((2-methoxy-4-((5-(morpholin-4-carbonyl)adamantan-2-yl)amino)phenyl)amino)-5-(trifluoromethyl)pyrimidin-4-yl)amino)-N,3-dimethylbenzamide] came in with a half-inhibitory concentration (IC50) of 57 nM.
Compound `CNC(=O)c1cccc(C)c1Nc1nc(Nc2ccc(N3CCN([C@H]4C5CC6CC4C[C@@](C(=O)OC)(C6)C5)CC3)cc2OC)ncc1C(F)(F)F` [Compound 38, methyl (cis)-4-(4-(3-methoxy-4-((4-((2-methyl-6-(methylcarbamoyl)phenyl)amino)-5-(trifluoromethyl)pyrimidin-2-yl)amino)phenyl)piperazin-1-yl) adamantan-1-carboxylate] returned an IC50 on FAK [1] of 70 nM.
Take `CNC(=O)c1cccc(C)c1Nc1nc(Nc2ccc(OC3CCN(C4C5CC6CC(C5)CC4C6)CC3)cc2OC)ncc1C(F)(F)F` (stereo not shown) [Compound 9, 2-((2-((4-((1-(adamantan-2-yl)piperidin-4-yl)oxy)-2-methoxyphenyl)amino)-5-(trifluoromethyl)pyrimidin-4-yl)amino)-N,3-dimethylbenzamide]: the IC50 was more than 10000 nM at InsR and 98.1 nM against FAK [1].
Regarding `COc1cc(C2CCN([C@H]3C4CC5CC3C[C@](O)(C5)C4)CC2)ccc1Nc1ncc(C(F)(F)F)c(Nc2c(C)cccc2C(N)=O)n1` [Compound 35, 2-((2-((4-(1-((cis)-5-hydroxyadamantan-2-yl)piperidin-4-yl)-2-methoxyphenyl)amino)-5-(trifluoromethyl)pyrimidin-4-yl)amino)-3-methylbenzamide], the results for the half-maximal inhibitory concentration (IC50) against InsR and at Pyk2 were 1440 nM and 418 nM, respectively.
In turn, `CNC(=O)c1cccc(C)c1Nc1nc(Nc2ccc(N3CCN([C@H]4C5CC6CC4C[C@](C(=O)O)(C6)C5)CC3)cc2OC)ncc1C(F)(F)F` [Compound 40, (cis)-4-(4-(3-methoxy-4-((4-((2-methyl-6-(methylcarbamoyl)phenyl)amino)-5-(trifluoromethyl)pyrimidin-2-yl)amino)phenyl)piperazin-1-yl) adamantan-1-carboxylic acid] gave an IC50 against FAK [1] of 58.3 nM.
Regarding `CNC(=O)c1cccc(C)c1Nc1nc(Nc2ccc(C3CCN([C@H]4C5CC6CC4C[C@@](O)(C6)C5)CC3)cc2OC)ncc1C(F)(F)F` [Compound 33, 2-((2-((4-(1-((cis)-5-hydroxyadamantan-2-yl)piperidin-4-yl)-2-methoxyphenyl)amino)-5-(trifluoromethyl)pyrimidin-4-yl)amino)-N,3-dimethylbenzamide], the figures for the IC50 against InsR and against Pyk2 were 2050 nM and 101 nM, respectively.
The compound `CNC(=O)c1cccc(C)c1Nc1nc(Nc2ccc(O[C@]34CC5CC(C3)[C@@H](N3CC[C@H](NC(C)=O)C3)C(C5)C4)cc2OC)ncc1C(F)(F)F` [Compound 14, 2-((2-((4-(((trans)-4-((S)-3-acetamidopyrrolidin-1-yl)adamantan-1-yl)oxy)-2-methoxyphenyl)amino)-5-(trifluoromethyl)pyrimidin-4-yl)amino)-N,3-dimethylbenzamide] returned an IC50 against FAK [1] of 57 nM.
On the same count and under the same terms, the result for `CNC(=O)c1cccc(C)c1Nc1nc(Nc2ccc(N3CCN([C@H]4C5CC6CC4C[C@](C(=O)OC)(C6)C5)CC3)cc2OC)ncc1C(F)(F)F` [Compound 37, methyl (trans)-4-(4-(3-methoxy-4-((4-((2-methyl-6-(methylcarbamoyl)phenyl)amino)-5-(trifluoromethyl)pyrimidin-2-yl)amino)phenyl)piperazin-1-yl) adamantan-1-carboxylate] reads 43.6 nM.
As for `CNC(=O)c1cccc(C)c1Nc1nc(Nc2ccc(NC(=O)[C@]34CC5CC(C3)[C@@H](N3CC[C@H](N)C3)C(C5)C4)cc2OC)ncc1C(F)(F)F` [Compound 30, (trans)-4-((S)-3-aminopyrrolidin-1-yl)-N-(3-methoxy-4-((4-((2-methyl-6-(methylcarbamoyl)phenyl)amino)-5-(trifluoromethyl)pyrimidin-2-yl)amino)phenyl) adamantan-1-carboxamide], the IC50 against InsR was found to be 3800 nM; against Pyk2, 18.2 nM.
`CNC(=O)c1cccc(C)c1Nc1nc(Nc2ccc(NC(=O)[C@]34CC5CC(C3)[C@H](N3CC[C@H](NC(C)=O)C3)C(C5)C4)cc2OC)ncc1C(F)(F)F` [Compound 28, (cis)-4-((S)-3-acetamidopyrrolidin-1-yl)-N-(3-methoxy-4-((4-((2-methyl-6-(methylcarbamoyl)phenyl)amino)-5-(trifluoromethyl)pyrimidin-2-yl)amino)phenyl) adamantan-1-carboxamide]: the IC50 on InsR was more than 10000 nM; on Pyk2, 64.5 nM; at FAK [1], 29 nM.
With `CNC(=O)c1cccc(C)c1Nc1nc(Nc2ccc(OC3C4CC5CC3CC(C(=O)N3CCOCC3)(C5)C4)cc2OC)ncc1C(F)(F)F` (stereo not shown) [Compound 19, 2-((2-((2-methoxy-4-((5-(morpholin-4-carbonyl)adamantan-2-yl)oxy)phenyl)amino)-5-(trifluoromethyl)pyrimidin-4-yl)amino)-N,3-dimethylbenzamide], the IC50 on FAK [1] came out at 127 nM.
The compound `CNC(=O)c1cccc(C)c1Nc1nc(Nc2ccc(N3CCN([C@H]4C5CC6CC4C[C@@](O)(C6)C5)CC3)cc2OC)ncc1Cl` [Compound 36, 2-((5-chloro-2-((4-(4-((trans)-5-hydroxyadamantan-2-yl)piperazin-1-yl)-2-methoxyphenyl)amino)-pyrimidin-4-yl)amino)-N,3-dimethylbenzamide] showed an IC50 on FAK [1] of 61.4 nM.
Still for that read-out and setting: the result for `CNC(=O)c1cccc(C)c1Nc1nc(Nc2ccc(OC3C4CC5CC3CC(C(=O)NC)(C5)C4)cc2OC)ncc1C(F)(F)F` (stereo not shown) [Compound 18, 4-(3-methoxy-4-((4-((2-methyl-6-(methylcarbamoyl)phenyl)amino)-5-(trifluoromethyl)pyrimidin-2-yl)amino)phenoxy)-N-methyladamantan-1-carboxamide] reads 92.9 nM.
As for `CNC(=O)c1cccc(C)c1Nc1nc(Nc2ccc(NC3C4CC5CC3CC(C(=O)N3CCN(C)CC3)(C5)C4)cc2OC)ncc1C(F)(F)F` (stereo not shown) [Compound 23, 2-((2-((2-methoxy-4-((5-(4-methylpiperazin-1-carbonyl)adamantan-2-yl)amino)phenyl)amino)-5-(trifluoromethyl)pyrimidin-4-yl)amino)-N,3-dimethylbenzamide], the IC50 was 77.5 nM at FAK [1] and 234 nM on FAK [2].
Take `COc1cc(C2CCN([C@H]3C4CC5CC3C[C@](O)(C5)C4)CC2)ccc1Nc1ncc(C(F)(F)F)c(Nc2c(C)cccc2C(N)=O)n1` [Compound 34, 2-((2-((4-(1-((trans)-5-hydroxyadamantan-2-yl)piperidin-4-yl)-2-methoxyphenyl)amino)-5-(trifluoromethyl)pyrimidin-4-yl)amino)-3-methylbenzamide]: the IC50 at InsR was found to be 1640 nM; against Pyk2 it was 427 nM.

Values taken from patent US12590070B2, “Adamantane derivatives as inhibitors of focal adhesion kinase” (SAMJIN PHARMACEUTICAL CO., LTD., priority 2019, dated 2026).
